Measurements published in PubChem BioAssay (NCI).
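Dose response: 5 concentrations. Exposure: 48 h. Format: 96-well plates. Endpoint: linear interpolation; highest concentration if not reached. At the TGI there is no net growth.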

Assays:
Assay in all cases: NCI tumour cell line growth inhibition, 48 h
786-0 renal = system: 786-0 renal
A498 renal = system: A498 renal
A549 NSCLC = system: A549 NSCLC
ACHN renal = system: ACHN renal
CCRF-CEM leukemia = system: CCRF-CEM leukemia
COLO 205 colon = system: COLO 205 colon
DU-145 prostate = system: DU-145 prostate
EKVX NSCLC = system: EKVX NSCLC
HCT-116 colon = system: HCT-116 colon
HCT-15 colon = system: HCT-15 colon
HL-60(TB) leukemia = system: HL-60(TB) leukemia
HOP-62 NSCLC = system: HOP-62 NSCLC
HOP-92 NSCLC = system: HOP-92 NSCLC
HS 578T breast = system: HS 578T breast
HT29 colon = system: HT29 colon
IGROV1 ovarian = system: IGROV1 ovarian
K-562 leukemia = system: K-562 leukemia
KM12 colon = system: KM12 colon
LOX IMVI melanoma = system: LOX IMVI melanoma
M14 melanoma = system: M14 melanoma
MALME-3M melanoma = system: MALME-3M melanoma
MCF7 breast = system: MCF7 breast
MDA-MB-231 breast = system: MDA-MB-231 breast
MDA-MB-435 = system: MDA-MB-435
MDA-N = system: MDA-N
MOLT-4 leukemia = system: MOLT-4 leukemia
NCI-H226 lung = system: NCI-H226 lung
NCI-H23 lung = system: NCI-H23 lung
NCI-H522 lung = system: NCI-H522 lung
NCI/ADR-RES ovarian = system: NCI/ADR-RES ovarian
OVCAR-3 ovarian = system: OVCAR-3 ovarian
OVCAR-4 ovarian = system: OVCAR-4 ovarian
OVCAR-5 ovarian = system: OVCAR-5 ovarian
OVCAR-8 ovarian = system: OVCAR-8 ovarian
PC-3 prostate = system: PC-3 prostate
RPMI-8226 leukemia = system: RPMI-8226 leukemia
SF-268 CNS = system: SF-268 CNS
SF-295 CNS = system: SF-295 CNS
SK-MEL-2 melanoma = system: SK-MEL-2 melanoma
SK-MEL-28 melanoma = system: SK-MEL-28 melanoma
SK-MEL-5 melanoma = system: SK-MEL-5 melanoma
SK-OV-3 ovarian = system: SK-OV-3 ovarian
SN12C renal = system: SN12C renal
SNB-19 CNS = system: SNB-19 CNS
SNB-75 CNS = system: SNB-75 CNS
SR leukemia = system: SR leukemia
SW-620 colon = system: SW-620 colon
TK-10 renal = system: TK-10 renal
U251 CNS = system: U251 CNS
UACC-62 melanoma = system: UACC-62 melanoma
UO-31 renal = system: UO-31 renal
BT-549 breast = system: BT-549 breast
CAKI-1 renal = system: CAKI-1 renal
RXF 393 renal = system: RXF 393 renal
UACC-257 melanoma = system: UACC-257 melanoma

## CN(C)CCNC(=O)c1cccc2c(NC(CCCN=C(N)N)C(=O)O)c3ccccc3nc12 (stereo not drawn)
786-0 renal
  TGI: > 100 µM
A498 renal
  TGI: 61.3 µM
A549 NSCLC
  TGI: > 100 µM
ACHN renal
  TGI: > 100 µM
CCRF-CEM leukemia
  TGI: > 100 µM
COLO 205 colon
  TGI: > 100 µM
DU-145 prostate
  TGI: > 100 µM
EKVX NSCLC
  TGI: 30.1 µM
HCT-116 colon
  TGI: 67.8 µM
HCT-15 colon
  TGI: > 100 µM
HL-60(TB) leukemia
  TGI: > 100 µM
HOP-62 NSCLC
  TGI: 90.8 µM
HOP-92 NSCLC
  TGI: 51.1 µM
HS 578T breast
  TGI: 33.2 µM
HT29 colon
  TGI: 14.1 µM
IGROV1 ovarian
  TGI: 64.7 µM
K-562 leukemia
  TGI: > 100 µM
KM12 colon
  TGI: 61.5 µM
LOX IMVI melanoma
  TGI: > 100 µM
M14 melanoma
  TGI: > 100 µM
MALME-3M melanoma
  TGI: 23.4 µM
MCF7 breast
  TGI: > 100 µM
MDA-MB-231 breast
  TGI: > 100 µM
MDA-MB-435
  TGI: 41.6 µM
MDA-N
  TGI: > 100 µM
MOLT-4 leukemia
  TGI: > 100 µM
NCI-H226 lung
  TGI: 22.8 µM
NCI-H23 lung
  TGI: 30.5 µM
NCI-H522 lung
  TGI: 29.5 µM
NCI/ADR-RES ovarian
  TGI: 25.1 µM
OVCAR-3 ovarian
  TGI: > 100 µM
OVCAR-4 ovarian
  TGI: 27.7 µM
OVCAR-5 ovarian
  TGI: > 100 µM
OVCAR-8 ovarian
  TGI: 30.5 µM
PC-3 prostate
  TGI: > 100 µM
RPMI-8226 leukemia
  TGI: > 100 µM
SF-268 CNS
  TGI: 27.7 µM
SF-295 CNS
  TGI: 41.9 µM
SK-MEL-2 melanoma
  TGI: 38.4 µM
SK-MEL-28 melanoma
  TGI: 89.2 µM
SK-MEL-5 melanoma
  TGI: > 100 µM
SK-OV-3 ovarian
  TGI: > 100 µM
SN12C renal
  TGI: > 100 µM
SNB-19 CNS
  TGI: 47 µM
SNB-75 CNS
  TGI: 34.5 µM
SR leukemia
  TGI: > 100 µM
SW-620 colon
  TGI: > 100 µM
TK-10 renal
  TGI: > 100 µM
U251 CNS
  TGI: > 100 µM
UACC-62 melanoma
  TGI: 60 µM
UO-31 renal
  TGI: > 100 µM

## Oc1ccc(Cl)cc1N=Nc1c(O)ccc2ccccc12
786-0 renal
  TGI: > 100 µM
A549 NSCLC
  TGI: > 100 µM
ACHN renal
  TGI: > 100 µM
BT-549 breast
  TGI: > 100 µM
CAKI-1 renal
  TGI: > 100 µM
CCRF-CEM leukemia
  TGI: > 100 µM
COLO 205 colon
  TGI: > 100 µM
EKVX NSCLC
  TGI: > 100 µM
HCT-116 colon
  TGI: > 100 µM
HCT-15 colon
  TGI: > 100 µM
HL-60(TB) leukemia
  TGI: > 100 µM
HOP-62 NSCLC
  TGI: > 100 µM
HOP-92 NSCLC
  TGI: > 100 µM
HS 578T breast
  TGI: > 100 µM
HT29 colon
  TGI: > 100 µM
IGROV1 ovarian
  TGI: > 100 µM
K-562 leukemia
  TGI: > 100 µM
KM12 colon
  TGI: > 100 µM
LOX IMVI melanoma
  TGI: > 100 µM
M14 melanoma
  TGI: > 100 µM
MALME-3M melanoma
  TGI: 80.3 µM
MDA-MB-231 breast
  TGI: > 100 µM
MDA-MB-435
  TGI: > 100 µM
MDA-N
  TGI: > 100 µM
MOLT-4 leukemia
  TGI: > 100 µM
NCI-H226 lung
  TGI: > 100 µM
NCI-H23 lung
  TGI: > 100 µM
NCI-H522 lung
  TGI: > 100 µM
NCI/ADR-RES ovarian
  TGI: > 100 µM
OVCAR-3 ovarian
  TGI: > 100 µM
OVCAR-4 ovarian
  TGI: > 100 µM
OVCAR-5 ovarian
  TGI: > 100 µM
OVCAR-8 ovarian
  TGI: > 100 µM
PC-3 prostate
  TGI: > 100 µM
RPMI-8226 leukemia
  TGI: > 100 µM
RXF 393 renal
  TGI: > 100 µM
SF-268 CNS
  TGI: > 100 µM
SF-295 CNS
  TGI: > 100 µM
SK-MEL-2 melanoma
  TGI: > 100 µM
SK-MEL-28 melanoma
  TGI: > 100 µM
SK-MEL-5 melanoma
  TGI: > 100 µM
SK-OV-3 ovarian
  TGI: > 100 µM
SN12C renal
  TGI: > 100 µM
SNB-19 CNS
  TGI: > 100 µM
SNB-75 CNS
  TGI: > 100 µM
SR leukemia
  TGI: > 100 µM
SW-620 colon
  TGI: > 100 µM
TK-10 renal
  TGI: > 100 µM
U251 CNS
  TGI: > 100 µM
UACC-257 melanoma
  TGI: > 100 µM
UACC-62 melanoma
  TGI: > 100 µM
UO-31 renal
  TGI: > 100 µM
